Each structure is given as a SMILES string.

In the experiment the target is T1, human TLR7 (Homo sapiens, UniProt Q9NYK1).
T1 construct: host or cells: HEK-Blue cells
T1 sequence (Q9NYK1 27-1049): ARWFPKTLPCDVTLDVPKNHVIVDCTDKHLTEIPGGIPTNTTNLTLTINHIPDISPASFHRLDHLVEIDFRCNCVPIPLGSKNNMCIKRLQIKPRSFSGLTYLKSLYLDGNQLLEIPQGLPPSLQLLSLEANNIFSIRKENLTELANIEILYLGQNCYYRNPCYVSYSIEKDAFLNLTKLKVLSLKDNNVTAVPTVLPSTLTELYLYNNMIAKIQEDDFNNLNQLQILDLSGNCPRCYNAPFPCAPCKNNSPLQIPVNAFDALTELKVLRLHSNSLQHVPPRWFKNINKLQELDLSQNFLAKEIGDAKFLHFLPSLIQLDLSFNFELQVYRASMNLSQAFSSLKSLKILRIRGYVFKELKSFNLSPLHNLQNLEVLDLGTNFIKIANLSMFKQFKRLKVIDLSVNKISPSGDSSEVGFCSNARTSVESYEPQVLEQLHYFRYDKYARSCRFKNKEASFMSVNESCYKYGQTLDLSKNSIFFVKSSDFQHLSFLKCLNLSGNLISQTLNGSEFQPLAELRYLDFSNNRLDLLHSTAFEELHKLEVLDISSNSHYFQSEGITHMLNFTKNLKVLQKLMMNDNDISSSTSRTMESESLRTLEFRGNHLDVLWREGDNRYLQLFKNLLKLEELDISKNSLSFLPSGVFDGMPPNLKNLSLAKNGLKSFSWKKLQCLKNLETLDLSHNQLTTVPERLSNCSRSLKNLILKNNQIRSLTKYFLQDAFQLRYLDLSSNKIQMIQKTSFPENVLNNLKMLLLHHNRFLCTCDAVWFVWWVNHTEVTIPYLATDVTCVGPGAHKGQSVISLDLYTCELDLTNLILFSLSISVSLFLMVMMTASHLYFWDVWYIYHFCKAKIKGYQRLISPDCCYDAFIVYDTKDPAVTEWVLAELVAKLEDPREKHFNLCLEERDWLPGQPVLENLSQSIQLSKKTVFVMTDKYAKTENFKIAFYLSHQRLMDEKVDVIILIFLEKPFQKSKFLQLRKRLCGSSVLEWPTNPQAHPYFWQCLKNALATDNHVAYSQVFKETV
Nature of the experiment: TLR7 inhibition reporter assay (HEK-Blue SEAP). It is filed as cell-based. Conditions: HEK-Blue cells overexpressing human TLR7, gardiquimod 7.5 μM, 22 hour incubation. In short, it runs like this: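 22 h, 37° C, 5% CO2 incubation; compounds 0.05 nM-50 μM final; TLR7 cells 15000/well, TLR8 20,000/well. Readout: SEAP via HEK-Blue Detection medium. % inhibition = signal reduction versus agonist + DMSO wells, referenced to known inhibitor.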
`Cc1cc2c(cc1-c1cc(C)c3ncnn3c1)[nH]c(=O)n2[C@@H]1CCCN(CC2CCOC2)C1` (stereo partly drawn) [Example 43, 6-methyl-5-(8-methyl-[1,2,4]triazolo[1,5-a]pyridin-6-yl)-1-((3R)-1-((tetrahydrofuran-3-yl)methyl)piperidin-3-yl)-1,3-dihydro-2H-benzo[d]imidazol-2-one] showed an IC50 of 88.5 nM.

Compound `COc1cc(-c2cc3[nH]c(=O)n([C@@H]4CCCN(C5COC5)C4)c3cc2C)cn2ncnc12` [Example 72, (R)-5-(8-methoxy-[1,2,4]triazolo[1,5-a]pyridin-6-yl)-6-methyl-1-(1-(oxetan-3-yl)piperidin-3-yl)-1,3-dihydro-2H-benzo[d]imidazol-2-one] displayed an IC50 of 676 nM.

For the compound `Cc1cc(-c2ccc3c(c2)[nH]c(=O)n3C2CCN(CC(=O)N(C)C)CC2)cn2ncnc12` [Example 90, N,N-dimethyl-2-(4-(5-(8-methyl-[1,2,4]triazolo[1,5-a]pyridin-6-yl)-2-oxo-2,3-dihydro-1H-benzo[d]imidazol-1-yl)piperidin-1-yl)acetamide], the 50% inhibitory concentration (IC50) is 2160 nM.

Turning to `CCCN[C@H]1CC[C@@H](n2c(=O)[nH]c3cc(-c4cc(OC)c5ncnn5c4)c(C)cc32)CC1` [Example 64, 5-(8-methoxy-[1,2,4]triazolo[1,5-a]pyridin-6-yl)-6-methyl-1-((1s,4s)-4-(propylamino)cyclohexyl)-1,3-dihydro-2H-benzo[d]imidazol-2-one], half-maximal inhibition (IC50) was put at 6.71 nM.

Take `COc1cc(-c2cc3[nH]c(=O)n([C@H]4CC[C@@H](NCC(C)C)CC4)c3cc2C)cn2ncnc12` [Example 61, 1-((1s,4s)-4-(isobutylamino)cyclohexyl)-5-(8-methoxy-[1,2,4]triazolo[1,5-a]pyridin-6-yl)-6-methyl-1,3-dihydro-2H-benzo[d]imidazol-2-one]: the 50% inhibitory concentration (IC50) is 20.6 nM.

For `CCC(CC)CN1CCC[C@@H](n2c(=O)[nH]c3cc(-c4cc(C)c5ncnn5c4)c(C)cc32)C1` [Example 45, (R)-1-(1-(2-ethylbutyl)piperidin-3-yl)-6-methyl-5-(8-methyl-[1,2,4]triazolo[1,5-a]pyridin-6-yl)-1,3-dihydro-2H-benzo[d]imidazol-2-one], it took 29.5 nM to reach half-maximal inhibition (IC50).

`COc1cc(-c2cc3[nH]c(=O)n([C@@H]4CCCN(CC5CC5)C4)c3cc2C)cn2ncnc12` [Example 55, (R)-1-(1-(cyclopropylmethyl)piperidin-3-yl)-5-(8-methoxy-[1,2,4]triazolo[1,5-a]pyridin-6-yl)-6-methyl-1,3-dihydro-2H-benzo[d]imidazol-2-one] gave an IC50 of 23.1 nM.

On to `COc1cc(-c2cc3[nH]c(=O)n([C@H]4CC[C@@H](NC5CCOCC5)CC4)c3cc2C)cn2ncnc12` [Example 49, 5-(8-methoxy-[1,2,4]triazolo[1,5-a]pyridin-6-yl)-6-methyl-1-((1s,4s)-4-((tetrahydro-2H-pyran-4-yl)amino)cyclohexyl)-1,3-dihydro-2H-benzo[d]imidazol-2-one], for which the IC50 came out at 18.2 nM.

On to `COc1cc(-c2cc3[nH]c(=O)n(C4CCN(C)CC4)c3cc2C)cn2ncnc12` [Example 1, 5-(8-methoxy-[1,2,4]triazolo[1,5-a]pyridin-6-yl)-6-methyl-1-(1-methylpiperidin-4-yl)-1,3-dihydro-2H-benzo[d]imidazol-2-one], for which the IC50 was 37.9 nM.

In turn, `Cc1cc2c(cc1-c1cc(C)c3ncnn3c1)[nH]c(=O)n2[C@@H]1CCCN(CC2CCCC2)C1` [Example 47, (R)-1-(1-(cyclopentylmethyl)piperidin-3-yl)-6-methyl-5-(8-methyl-[1,2,4]triazolo[1,5-a]pyridin-6-yl)-1,3-dihydro-2H-benzo[d]imidazol-2-one] had an IC50 of 18.5 nM.

`Cc1cc2c(cc1-c1cc(C)c3ncnn3c1)[nH]c(=O)n2[C@@H]1CCCN(CCC(C)(C)C)C1` [Example 44, (R)-1-(1-(3,3-dimethylbutyl)piperidin-3-yl)-6-methyl-5-(8-methyl-[1,2,4]triazolo[1,5-a]pyridin-6-yl)-1,3-dihydro-2H-benzo[d]imidazol-2-one] yielded an IC50 of 104 nM.

`COc1cc(-c2cc3[nH]c(=O)n([C@H]4CC[C@@H](N(C)C)CC4)c3cc2C)cn2ncnc12` [Example 48, 1-((1s,4s)-4-(dimethylamino)cyclohexyl)-5-(8-methoxy-[1,2,4]triazolo[1,5-a]pyridin-6-yl)-6-methyl-1,3-dihydro-2H-benzo[d]imidazol-2-one]: the IC50 was determined as 14.8 nM.

As for `COc1cc(-c2cc3[nH]c(=O)n([C@H]4CC[C@@H](N(C)C(C)C)CC4)c3cc2C)cn2ncnc12` [Example 84, 1-((1s,4s)-4-(isopropyl(methyl)amino)cyclohexyl)-5-(8-methoxy-[1,2,4]triazolo[1,5-a]pyridin-6-yl)-6-methyl-1,3-dihydro-2H-benzo[d]imidazol-2-one], the IC50 was found to be 16 nM.

With `COc1cc(-c2cc3[nH]c(=O)n([C@@H]4CCCN(C)C4)c3cc2C)cn2ncnc12` [Example 51, (R)-5-(8-methoxy-[1,2,4]triazolo[1,5-a]pyridin-6-yl)-6-methyl-1-(1-methylpiperidin-3-yl)-1,3-dihydro-2H-benzo[d]imidazol-2-one], the IC50 turned out to be 32.5 nM.

`COc1cc(-c2cc3[nH]c(=O)n([C@H]4CC[C@@H](NC5CCCCC5)CC4)c3cc2C)cn2ncnc12` [Example 62, 1-((1s,4s)-4-(cyclohexylamino)cyclohexyl)-5-(8-methoxy-[1,2,4]triazolo[1,5-a]pyridin-6-yl)-6-methyl-1,3-dihydro-2H-benzo[d]imidazol-2-one] yielded an IC50 of 12 nM.

In turn, `Cc1cc2c(cc1-c1cc(C)c3ncnn3c1)[nH]c(=O)n2[C@H]1CCCN(CC(N)=O)C1` [Example 92, (S)-2-(3-(6-methyl-5-(8-methyl-[1,2,4]triazolo[1,5-a]pyridin-6-yl)-2-oxo-2,3-dihydro-1H-benzo[d]imidazol-1-yl)piperidin-1-yl)acetamide] came in with an IC50 of 820 nM.

For the compound `COc1cc(-c2cc3[nH]c(=O)n([C@H]4CC[C@@H](NC5CCCC5)CC4)c3cc2C)cn2ncnc12` [Example 65, 1-((1s,4s)-4-(cyclopentylamino)cyclohexyl)-5-(8-methoxy-[1,2,4]triazolo[1,5-a]pyridin-6-yl)-6-methyl-1,3-dihydro-2H-benzo[d]imidazol-2-one], it took 10.5 nM to reach half-maximal inhibition (IC50).

Turning to `CCN1CCC[C@@H](n2c(=O)[nH]c3cc(-c4cc(OC)c5ncnn5c4)c(C)cc32)C1` [Example 52, (R)-1-(1-ethylpiperidin-3-yl)-5-(8-methoxy-[1,2,4]triazolo[1,5-a]pyridin-6-yl)-6-methyl-1,3-dihydro-2H-benzo[d]imidazol-2-one], inhibition was half-maximal at 65.3 nM (IC50).

Turning to `Cc1cc2c(cc1-c1cc(C)c3ncnn3c1)[nH]c(=O)n2[C@@H]1CCCN(CCCC(F)(F)F)C1` [Example 39, (R)-6-methyl-5-(8-methyl-[1,2,4]triazolo[1,5-a]pyridin-6-yl)-1-(1-(4,4,4-trifluorobutyl)piperidin-3-yl)-1,3-dihydro-2H-benzo[d]imidazol-2-one], the IC50 turned out to be 139 nM.

In the case of `COc1cc(-c2cc3[nH]c(=O)n([C@H]4CC[C@@H](NC5COC5)CC4)c3cc2C)cn2ncnc12` [Example 59, 5-(8-methoxy-[1,2,4]triazolo[1,5-a]pyridin-6-yl)-6-methyl-1-((1s,4s)-4-(oxetan-3-ylamino)cyclohexyl)-1,3-dihydro-2H-benzo[d]imidazol-2-one], the IC50 came to 67.1 nM.

As to `COc1cc(-c2ccc3c(c2)[nH]c(=O)n3C2CCN(C3CCC3)CC2)cn2ncnc12` [Example 83, 1-(1-cyclobutylpiperidin-4-yl)-5-(8-methoxy-[1,2,4]triazolo[1,5-a]pyridin-6-yl)-1,3-dihydro-2H-benzo[d]imidazol-2-one], the IC50 was found to be 2480 nM.

The compound `Cc1cc2c(cc1-c1cc(C)c3ncnn3c1)[nH]c(=O)n2C1CCN(CC(=O)N(C)C)CC1` [Example 91, N,N-dimethyl-2-(4-(6-methyl-5-(8-methyl-[1,2,4]triazolo[1,5-a]pyridin-6-yl)-2-oxo-2,3-dihydro-1H-benzo[d]imidazol-1-yl)piperidin-1-yl)acetamide] displayed an IC50 of over 3130 nM.

`Cc1cc2c(cc1-c1cc(C)c3ncnn3c1)[nH]c(=O)n2[C@@H]1CCCN(CC2CC2)C1` [Example 37, (R)-1-(1-(cyclopropylmethyl)piperidin-3-yl)-6-methyl-5-(8-methyl-[1,2,4]triazolo[1,5-a]pyridin-6-yl)-1,3-dihydro-2H-benzo[d]imidazol-2-one] showed an IC50 of 30.9 nM.

The record behind these values is patent US12187723B2 (BRISTOL-MYERS SQUIBB COMPANY, priority 2019, dated 2025).
